Tested on: patient with chronic myelogenous leukemia
Test: Administration of Tasigna (nilotinib) to the patient with chronic myelogenous leukemia
Assay type: in vivo, human
Details: CML patient
Description: To a patient with chronic myelogenous leukemia, Tasigna (registered trademark) (nilotinib) was administered from Jan. 9, 2014.
The initially administered Tasigna (registered trademark) (nilotinib) had been developed as a therapeutic agent for the transitional stage of chronic myelogenous leukemia from the chronic stage to the acute stage.

Question: What does the source list for `Cc1cn(-c2cc(NC(=O)c3ccc(C)c(Nc4nccc(-c5cccnc5)n4)c3)cc(C(F)(F)F)c2)cn1` [Tasigna, nilotinib]?
Answer: therapeutic effect (considered at the acute stage): no therapeutic effect; adverse effects (administration stopped after 5 days): strong adverse effects were observed

Source: patent US11185517B2, “Pharmaceutical composition for treatment or remission of chronic myelogenous leukemia” (Delta-Fly Pharma, Inc., priority 2016, dated 2021)
